Measurements taken from US7351737B2, “4-[(8-substituted)-6-chromanoyl]-and 4-[8-substituted)-chroman-6-YL-ethynyl]-benzoic and phenylacetic acids, their esters and salts having cytochrome P450RAI inhibitory activity” (Allergan, Inc., priority 2002, dated 2008).
pIC50, pKd: −log10 of the molar value.

Experiments:
[1] = target: T1, RARγ (Homo sapiens, UniProt P13631); experiment: ligand binding assay, RARγ; conditions: last item of cell, read-out: RAR γ Kd
T1 sequence (P13631 1-454): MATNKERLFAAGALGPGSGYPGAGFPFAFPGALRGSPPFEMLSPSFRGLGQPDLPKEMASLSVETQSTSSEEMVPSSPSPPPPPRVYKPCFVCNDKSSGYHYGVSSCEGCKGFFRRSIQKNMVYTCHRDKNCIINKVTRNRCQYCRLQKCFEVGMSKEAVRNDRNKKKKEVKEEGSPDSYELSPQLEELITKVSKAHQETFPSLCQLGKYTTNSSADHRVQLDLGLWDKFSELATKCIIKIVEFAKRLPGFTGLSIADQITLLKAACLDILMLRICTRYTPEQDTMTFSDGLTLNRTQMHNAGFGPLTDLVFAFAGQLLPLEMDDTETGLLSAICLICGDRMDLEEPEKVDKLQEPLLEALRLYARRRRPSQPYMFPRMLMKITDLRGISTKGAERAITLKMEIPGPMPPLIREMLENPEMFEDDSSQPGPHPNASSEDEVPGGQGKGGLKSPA
Text: (§1) Assays described below measure the ability of a compound to bind to, and/or activate various retinoid receptor subtypes. When in these assays a compound binds to a given receptor subtype and activates the transcription of a reporter gene through that subtype, then the compound is considered an agonist of that receptor subtype. […] In the below described assays the ability of the compounds to bind to RARα, RARβ, RARγ, RXRα, RXRβ and RXRγ receptors, and the ability or inability of the compounds to activate transcription of a reporter gene through these receptor subtypes can be tested.
(§2) A holoreceptor transactivation assay and a ligand binding assay which measure the antagonist/agonist like activity of the compounds of the invention, or their ability to bind to the several retinoid receptor subtypes, respectively, are described in published PCT Application No. WO WO93/11755 (particularly on pages 30-33 and 37-41) published on Jun. 24, 1993, the specification of which is also incorporated herein by reference. A detailed experimental procedure for holoreceptor transactivations has been described by Heyman et al. Cell 68, 397-406, (1992); Allegretto et al. J. Biol. Chem. 268, 26625-26633, and Mangelsdorf et al. The Retinoids: Biology, Chemistry and Medicine, pp 319-349, Raven Press Ltd., New York, which are expressly incorporated herein by reference. The results obtained in this assay are expressed in EC50 numbers, as they are also in the chimeric receptor transactivation assay. The results of ligand binding assay are expressed in Kd numbers. (See Cheng et al. Biochemical Pharmacology Vol. 22 pp 3099-3108, expressly incorporated herein by reference.)
(§3) The results of the ligand binding assay for several preferred compounds of the invention are included in Table 1.

[2] = target: T2, P450RAI-1 (Homo sapiens, UniProt O43174); experiment: P450RAI-1 cell-based inhibitor assay ([3H]-RA metabolism, intact cells); conditions: P450RAI-1 stably transfected HeLa cells, 3 hours at 37° C., all-trans-RA metabolism; read-out: P450RAI INHIBITION DATA RAI-1 Intact cells IC50
T2 construct: expressed in transfected cells; host or cells: HeLa
T2 sequence (O43174 1-497): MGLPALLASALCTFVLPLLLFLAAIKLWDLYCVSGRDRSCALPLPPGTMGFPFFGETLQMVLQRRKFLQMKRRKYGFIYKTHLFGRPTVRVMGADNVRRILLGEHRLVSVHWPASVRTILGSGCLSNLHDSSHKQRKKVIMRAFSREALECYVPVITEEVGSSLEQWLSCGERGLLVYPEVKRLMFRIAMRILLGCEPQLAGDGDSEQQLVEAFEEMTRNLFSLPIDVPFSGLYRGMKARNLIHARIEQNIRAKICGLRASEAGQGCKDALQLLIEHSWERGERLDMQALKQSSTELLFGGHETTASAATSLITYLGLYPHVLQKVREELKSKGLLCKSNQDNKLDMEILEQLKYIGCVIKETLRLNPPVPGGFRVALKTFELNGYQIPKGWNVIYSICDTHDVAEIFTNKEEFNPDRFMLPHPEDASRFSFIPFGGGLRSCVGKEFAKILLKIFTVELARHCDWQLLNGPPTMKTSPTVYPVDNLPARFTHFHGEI
Protocol: FIG. 1 is a schematic representation of the P450RAI cell based assay utilized to evaluate the ability of the compounds of the invention to inhibit the Cytochrome P450RAI enzyme.
P450RAI-1 and P450RAI-2 Cell-Based Inhibitor Assay:
P450RAI-1 stably transfected HeLa cells, or P450RAI-2 stably transfected HeLa cells, as applicable, are maintained in […] tissue culture dishes in Modified Eagle's Medium (MEM) containing 10% Fetal Bovine Serum (FBS) and 100 μg/ml hygromycin. Exponentially growing cells are harvested by incubating in trypsin. Cells are then washed with 1X Phosphate Buffered Saline (PBS) and plated in a 48-well plate at 5×10^5 cells in 0.2 ml MEM medium containing 10% FBS and 0.05 μCi [^3H]-RA in the presence or absence of increasing concentrations of the test compounds. The compounds are diluted in 100% DMSO and then added in triplicate wells at either 10, 1 or 0.1 μM final concentration. As a positive control for RA metabolism inhibition, cells are also incubated with ketoconazole at 100, 10 and 1 μM. Cells are incubated for 3 hours at 37° C. The retinoids are then extracted using the procedure of Bligh et al. (1959) Canadian Journal of Biochemistry 37, 911-917, modified by using methylenechloride instead of chloroform. The publication Bligh et al. (1959) Canadian Journal of Biochemistry 37, 911-917 is specifically incorporated herein by reference. The water soluble radioactivity is quantified using a β-scintillation counter. IC50 values represent the concentration of inhibitor required to inhibit all-trans-RA metabolism by 50 percent and are derived manually from log-transformed data.

[3] = target: T3, RARα (Homo sapiens, UniProt P10276); experiment: ligand binding assay, RARα; conditions: last item of cell, read-out: RAR α Kd
T3 sequence (P10276 1-462): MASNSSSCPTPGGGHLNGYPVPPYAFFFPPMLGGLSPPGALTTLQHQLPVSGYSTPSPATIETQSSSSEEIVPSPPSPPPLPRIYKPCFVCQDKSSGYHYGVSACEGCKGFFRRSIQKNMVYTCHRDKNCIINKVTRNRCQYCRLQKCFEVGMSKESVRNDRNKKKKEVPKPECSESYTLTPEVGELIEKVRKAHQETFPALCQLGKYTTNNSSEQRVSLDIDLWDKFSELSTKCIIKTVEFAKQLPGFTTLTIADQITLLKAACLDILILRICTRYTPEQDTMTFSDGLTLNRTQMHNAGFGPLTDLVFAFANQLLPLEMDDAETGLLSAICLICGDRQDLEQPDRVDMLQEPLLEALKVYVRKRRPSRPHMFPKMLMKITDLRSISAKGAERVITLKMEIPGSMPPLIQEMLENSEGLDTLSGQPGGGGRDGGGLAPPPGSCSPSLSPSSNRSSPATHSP
Text: as §1, §2, §3

| Compound | pKd [1] | pIC50 [2] | pKd [3] |
| --- | --- | --- | --- |
| CC1(C)CC(C)(C)c2cc(C(=O)Oc3ccc(CC(=O)O)c(F)c3)cc(C#N)c2O1 [Compound 32, 8-Cyano-2,2,4,4-tetramethyl-chroman-6-carboxylic acid-4-carboxymethyl-3-fluoro-phenyl ester] | < 5.00 | 7.00 | < 5.00 |
| C#Cc1cc(C(=O)Oc2ccc(CC(=O)OCC)cc2)cc2c1OC(C)(C)CC2(C)C [Compound 2, 8-Ethynyl-2,2,4,4-tetramethyl-chroman-6-carboxylic acid 4-ethoxycarbonylmethyl-phenyl ester] | < 5.00 | 5.22 | < 5.00 |
| C#Cc1cc(C(=O)Oc2ccc(CC(=O)O)c(F)c2)cc2c1OC(C)(C)CC2(C)C [Compound 4, 8-Ethynyl-2,2,4,4-tetramethyl-chroman-6-carboxylic acid-4-carboxymethyl-3-fluoro-phenyl ester] | < 5.00 | 7.00 | 5.46 |
| C#CCc1cc(C#Cc2ccc(CC(=O)O)cc2)cc2c1OC(C)(C)CC2(C)C [Compound 49] | 5.08 | 7.74 | 5.14 |
| C#Cc1cc(C(=O)Oc2ccc(CC(=O)O)cc2)cc2c1OC(C)(C)CC2(C)C [Compound 1, 8-Ethynyl-2,2,4,4-tetramethyl-chroman-6-carboxylic acid 4-carboxymethyl-phenyl ester] | < 5.00 | 6.30 | < 5.00 |
| C#Cc1cc(C#Cc2ccc(CC(=O)O)c(F)c2)cc2c1OC(C)(C)CC2(C)C [Compound 41, [4-(8-Ethynyl-2,2,4,4-tetramethyl-chroman-6-ylethynyl)-2-fluoro-phenyl]-acetic acid] | < 5.00 | 8.40 | < 5.00 |
| CC(=O)OCOC(=O)Cc1ccc(OC(=O)c2cc(C#N)c3c(c2)C(C)(C)CC(C)(C)O3)cc1F [Compound 33, 8-Cyano-2,2,4,4-tetramethyl-chroman-6-carboxylic acid 4-acetoxymethoxycarbonylmethyl-3-fluoro-phenyl ester] | < 5.00 | 7.00 | < 5.00 |
| C#Cc1cc(C(=O)Oc2ccc(CC(=O)OCOC(C)=O)c(F)c2)cc2c1OC(C)(C)CC2(C)C [Compound 5, 8-Ethynyl-2,2,4,4-tetramethyl-chroman-6-carboxylic acid 4-acetoxymethoxycarbonylmethyl-3-fluoro-phenyl ester] | < 5.00 | 7.12 | 5.33 |
| C#Cc1cc(C(=O)Oc2ccc(CC(=O)OCOC(C)=O)cc2)cc2c1OC(C)(C)CC2(C)C [Compound 3, 8-Ethynyl-2,2,4,4-tetramethyl-chroman-6-carboxylic acid 4-acetoxymethoxycarbonylmethyl-phenyl ester] | < 5.00 | 6.30 | < 5.00 |
| C#Cc1cc(C#Cc2ccc(CC(=O)O)cc2)cc2c1OC(C)(C)CC2(C)C [Compound 40, [4-(8-Ethynyl-2,2,4,4-tetramethyl-chroman-6-ylethynyl)-phenyl]-acetic acid] | < 5.00 | 8.00 | < 5.00 |
